“Also recorded” adds a separate entry of the source.
Columns and labels:
[1] = system: protein carbonylation; test: Protein carbonylation in PAC-CIPN rat epidermis; type: in vivo; conditions: 8-AG 5 mg/kg/day in drinking water
Procedure: Animals: This study employed female Harlan Sprague Dawley (HSD) rats (3-4 mo; Envigo, Indianapolis, IN) and were divided into the following groups: 1) Control, 2) Cyclophosphamide (CYP, 75 mg/kg i.p. in saline vehicle; administered on days 0, 3 and 6 until sacrifice on day 8); 4) Paclitaxel (2 mg/kg i.p., 2 mg/kg i.p. in saline from a stock solution of 50/50 CremophorEL/ethanol); administered on days 0, 2, 4 and 6 until sacrifice on day 8; 4) 8-aminoguanine (8-AG; 5 mg/kg/day in drinking water; beginning 2 weeks prior to either CYP or PAC and continuing until sacrifice (day 8)). The dose of 8-AG was based on the experiments described above. […] All tissues (spinal cord and hindpaw epidermis) were removed from isoflurane anesthetized rats and the tissue was used for various experimental approaches as described below. At the end of tissue removal, animals were sacrificed by thoracotomy. […]

[2] = system: CYP—CIPN rats; test: Von Frey sensory testing in CYP-CIPN rats; type: in vivo, rat; conditions: hindpaw, 8-AG 5 mg/kg/day in drinking water
Procedure: Animals. This study employed female Harlan Sprague Dawley (HSD) rats (3-4 mo; Envigo, Indianapolis, IN) and were divided into the following groups: 1) Control, 2) Cyclophosphamide (CYP, 75 mg/kg i.p. in saline vehicle; administered on days 0, 3 and 6); 3) 8-aminoguanine (8-AG; 5 mg/kg/day in drinking water; beginning 2 weeks prior to CYP and continuing until sacrifice (day 8)). The dose of 8-AG is based on our preliminary and published experiments. […] The investigation conforms to the Guide for the Care and Use of Laboratory Animals published by the US National Institutes of Health (NIH Publication No. 85-23, revised 1996). In addition, all tissues (dorsal root ganglion, spinal cord, peripheral nerves and hindpaw epidermis) were removed from isoflurane anesthetized rats and the tissue was used for various experimental approaches as described below. At the end of tissue removal, animals were sacrificed by thoracotomy.
Control, CYP and 8-AG-treated CYP rats were placed in an elevated chamber on a wire mesh floor and after acclimatization, calibrated von Frey microfilaments were applied to determine paw withdrawal threshold (PWT, in grams). Briefly, microfilaments (Stoelting Corp, USA) are applied with different forces perpendicularly to the plantar surface of both ipsilateral and contralateral hindpaw by increasing and decreasing stimulus intensity. […]

## Nc1nc2[nH]c(N)nc2c(=O)[nH]1 [8-AG, 8-Aminoguanine]
[1]
  effect on PAC-induced protein carbonylation: restored values to that of a control state; also recorded: significantly reduced
[2]
  effect on CYP-induced increase in sensitivity to mechanical stimuli (paw withdrawal threshold): restored to control values; also recorded: normalizes; also recorded: normalized to control conditions
